The record followed here is patent publication US10927354B2, “D-type amino acid dehydrogenase” (Kureha Corporation, priority 2017, dated 2021).

Molecules are shown by their SMILES.

Holding throughout (format): biochemical, Numidum massiliense
Experiment [1] concerns D-type amino acid dehydrogenase derived from N. massiliense (wild type). The experiment is described as follows: D-amino acid synthesis activity, wild type enzyme. The conditions noted are these: 5 mM 2-oxo acid, 200 mM ammonium chloride, pH 9.5, 50° C.; for D-amino acid synthesis activity (specific activity), Wild type, NADH: 0.1 mM NADH; for D-amino acid synthesis activity (specific activity), Wild type, NADPH: 0.1 mM NADPH. On the procedure:
(§1) The activity of the enzyme was measured by determining a decrease in absorbance at wavelength of 340 nm of NADPH or NADH produced by the catalytic reaction of the enzyme. […] The absorbance was measured by an ultraviolet-visible spectrophotometer UV-1800 (available from SHIMADZU).

Experiment [2] has as its system three-mutation introduced D-type amino acid dehydrogenase (Thr174Ile, Arg184Met, His230Asn). The experiment is described as follows: D-amino acid synthesis activity, three-mutation enzyme. The settings on record: 5 mM 2-oxo acid, 200 mM ammonium chloride, pH 9.5, 50° C.; for D-amino acid synthesis activity (specific activity), Three-mutation enzyme, NADH: 0.1 mM NADH; for D-amino acid synthesis activity (specific activity), Three-mutation enzyme, NADPH: 0.1 mM NADPH.
From the text: DNA encoding polypeptide in which three types of mutations (Thr174Ile, Arg184Met, and His230Asn) were introduced into the amino acid sequence of D-type amino acid dehydrogenase derived from N. massiliense was obtained by synthesis. This was cleaved with restriction enzymes NdeI and EcoRI, separated by agarose gel electrophoresis, and then extracted and purified from the gel. DNA fragments after a restriction enzyme treatment were incorporated into restriction enzyme sites (NdeI and EcoRI) of pET-21a(+) (available from Novagen) of a plasmid for protein expression by a ligation reaction to construct an expression vector that retains three-mutation introduced D-type amino acid dehydrogenase gene. The expression vector was constructed such that the three-mutation introduced D-type amino acid dehydrogenase gene was incorporated into downstream of the T7 promoter and the […] binding site, and upstream of the T7 terminator.
as §1

The test system of experiment [3] is five-mutation introduced D-type amino acid dehydrogenase (Met155Leu, Val159Gly, Thr174Ile, Arg184Met, His230Asn). In words: D-amino acid synthesis activity, five-mutation enzyme. The settings on record: 5 mM 2-oxo acid, 200 mM ammonium chloride, pH 9.5, 50° C.; for D-amino acid synthesis activity (specific activity), Five-mutation enzyme, NADH: 0.1 mM NADH; for D-amino acid synthesis activity (specific activity), Five-mutation enzyme, NADPH: 0.1 mM NADPH. The method, then:
In order to prepare a gene for a mutant enzyme in which five types of mutations (Met155Leu, Val159Gly, Thr174Ile, Arg184Met, and His230Asn) are introduced into the D-type amino acid dehydrogenase derived from N. massiliense, the six mutation-introduced D-type amino acid dehydrogenase/pET-21a(+) prepared above was used as a template to prepare the expression vector by PCR using “PrimeSTAR Max DNA Polymerase” available from Takara Bio Inc. PCR was performed according to the manufacturer's protocol. A PCR reaction solution was prepared by containing 0.3 μM of each of the following primers and 50 ng of templet DNA as described above.
as §1

Experiment [4] deals with six-mutation introduced D-type amino acid dehydrogenase (Asp95Ser, Met155Leu, Val159Gly, Thr174Ile, Arg184Met, His230Asn). The experiment is described as follows: D-amino acid synthesis activity, six-mutation enzyme. The settings on record: 5 mM 2-oxo acid, 200 mM ammonium chloride, pH 9.5, 50° C.; for D-amino acid synthesis activity (specific activity), Six-mutation enzyme, NADH: 0.1 mM NADH; for D-amino acid synthesis activity (specific activity), Six-mutation enzyme, NADPH: 0.1 mM NADPH. On the procedure:
DNA encoding polypeptide into which six types of mutations (Asp95Ser, Met155Leu, Val159Gly, Thr174Ile, Arg184Met, and His230Asn) were introduced into the amino acid sequence of D-type amino acid dehydrogenase derived from N. massiliense was obtained by synthesis. An expression vector that retains the six-mutation introduced D-type amino acid dehydrogenase gene was further constructed in the same manner as described above.
as §1

As to `CSCCC(=O)C(=O)O` [2-oxo-4-(methylthio)butanoic acid], in experiment [1], the “D-amino acid synthesis activity (specific activity), Wild type, NADH” value is listed as “No” and the “D-amino acid synthesis activity (specific activity), Wild type, NADPH” value was 2.0 µmol/min/mg. In experiment [2], the “D-amino acid synthesis activity (specific activity), Three-mutation enzyme, NADH” value is 0.013 µmol/min/mg and the “D-amino acid synthesis activity (specific activity), Three-mutation enzyme, NADPH” value is 5.2 µmol/min/mg. In experiment [3], the “D-amino acid synthesis activity (specific activity), Five-mutation enzyme, NADH” value turned out to be 0.069 µmol/min/mg and the “D-amino acid synthesis activity (specific activity), Five-mutation enzyme, NADPH” value amounted to 12.3 µmol/min/mg. In experiment [4], the “D-amino acid synthesis activity (specific activity), Six-mutation enzyme, NADH” value amounted to 0.024 µmol/min/mg and the “D-amino acid synthesis activity (specific activity), Six-mutation enzyme, NADPH” value was found to be 2.8 µmol/min/mg.

Regarding `CCCCCCC(=O)C(=O)O` [2-oxooctanoic acid], in experiment [1], the “D-amino acid synthesis activity (specific activity), Wild type, NADH” value is on record as “No” and the “D-amino acid synthesis activity (specific activity), Wild type, NADPH” value was found to be 5.8 µmol/min/mg. Besides, in experiment [2], the “D-amino acid synthesis activity (specific activity), Three-mutation enzyme, NADH” value stood at 0.039 µmol/min/mg and the “D-amino acid synthesis activity (specific activity), Three-mutation enzyme, NADPH” value was found to be 8.2 µmol/min/mg. In addition, in experiment [3], the “D-amino acid synthesis activity (specific activity), Five-mutation enzyme, NADH” value was 0.050 µmol/min/mg and the “D-amino acid synthesis activity (specific activity), Five-mutation enzyme, NADPH” value was 11.2 µmol/min/mg. Further, in experiment [4], the “D-amino acid synthesis activity (specific activity), Six-mutation enzyme, NADH” value amounted to 1.0 µmol/min/mg and the “D-amino acid synthesis activity (specific activity), Six-mutation enzyme, NADPH” value turned out to be 9.0 µmol/min/mg.

For `CC(=O)C(=O)O` [2-oxopropanoic acid], in experiment [1], the “D-amino acid synthesis activity (specific activity), Wild type, NADH” value amounted to 0.13 µmol/min/mg and the “D-amino acid synthesis activity (specific activity), Wild type, NADPH” value turned out to be 4.7 µmol/min/mg. In experiment [2], the “D-amino acid synthesis activity (specific activity), Three-mutation enzyme, NADH” value was 0.000 µmol/min/mg and the “D-amino acid synthesis activity (specific activity), Three-mutation enzyme, NADPH” value came out at 2.2 µmol/min/mg. In experiment [3], the “D-amino acid synthesis activity (specific activity), Five-mutation enzyme, NADH” value worked out at 0.046 µmol/min/mg and the “D-amino acid synthesis activity (specific activity), Five-mutation enzyme, NADPH” value came out at 0.30 µmol/min/mg. In experiment [4], the “D-amino acid synthesis activity (specific activity), Six-mutation enzyme, NADH” value stood at 0.12 µmol/min/mg and the “D-amino acid synthesis activity (specific activity), Six-mutation enzyme, NADPH” value is 0.0070 µmol/min/mg.

Take `O=C(O)CCC(=O)C(=O)O` [2-oxoglutaric acid]: in experiment [1], the “D-amino acid synthesis activity (specific activity), Wild type, NADH” value was “No” and the “D-amino acid synthesis activity (specific activity), Wild type, NADPH” value was 0.11 µmol/min/mg. Besides, in experiment [2], the “D-amino acid synthesis activity (specific activity), Three-mutation enzyme, NADH” value is “No” and the “D-amino acid synthesis activity (specific activity), Three-mutation enzyme, NADPH” value is “No”. For the same compound, in experiment [3], the “D-amino acid synthesis activity (specific activity), Five-mutation enzyme, NADH” value is given as “No” and the “D-amino acid synthesis activity (specific activity), Five-mutation enzyme, NADPH” value is listed as “No”. Also, in experiment [4], the “D-amino acid synthesis activity (specific activity), Six-mutation enzyme, NADH” value is “No” and the “D-amino acid synthesis activity (specific activity), Six-mutation enzyme, NADPH” value is “No”.

For the compound `CC(C)C(=O)C(=O)O` [2-oxo-3-methylbutanoic acid], in experiment [1], the “D-amino acid synthesis activity (specific activity), Wild type, NADH” value is 0.0012 µmol/min/mg and the “D-amino acid synthesis activity (specific activity), Wild type, NADPH” value was 0.26 µmol/min/mg. Also, in experiment [2], the “D-amino acid synthesis activity (specific activity), Three-mutation enzyme, NADH” value is 0.043 µmol/min/mg and the “D-amino acid synthesis activity (specific activity), Three-mutation enzyme, NADPH” value is 2.5 µmol/min/mg. Further, in experiment [3], the “D-amino acid synthesis activity (specific activity), Five-mutation enzyme, NADH” value stood at 0.018 µmol/min/mg and the “D-amino acid synthesis activity (specific activity), Five-mutation enzyme, NADPH” value came out at 2.4 µmol/min/mg. Moreover, in experiment [4], the “D-amino acid synthesis activity (specific activity), Six-mutation enzyme, NADH” value is “No” and the “D-amino acid synthesis activity (specific activity), Six-mutation enzyme, NADPH” value worked out at 0.051 µmol/min/mg.

As for `CCC(C)C(=O)C(=O)O` (centres unmarked) [2-oxo-3-methylpentanoic acid], in experiment [1], the “D-amino acid synthesis activity (specific activity), Wild type, NADH” value is given as “No” and the “D-amino acid synthesis activity (specific activity), Wild type, NADPH” value was 0.18 µmol/min/mg. For the same compound, in experiment [2], the “D-amino acid synthesis activity (specific activity), Three-mutation enzyme, NADH” value came to 0.043 µmol/min/mg and the “D-amino acid synthesis activity (specific activity), Three-mutation enzyme, NADPH” value came out at 4.7 µmol/min/mg. Besides, in experiment [3], the “D-amino acid synthesis activity (specific activity), Five-mutation enzyme, NADH” value is 0.025 µmol/min/mg and the “D-amino acid synthesis activity (specific activity), Five-mutation enzyme, NADPH” value turned out to be 4.0 µmol/min/mg. Also, in experiment [4], the “D-amino acid synthesis activity (specific activity), Six-mutation enzyme, NADH” value is 0.0030 µmol/min/mg and the “D-amino acid synthesis activity (specific activity), Six-mutation enzyme, NADPH” value was 0.23 µmol/min/mg.

Consider `CC(C)CC(=O)C(=O)O` [2-oxo-4-methylpentanoic acid], for which, in experiment [1], the “D-amino acid synthesis activity (specific activity), Wild type, NADH” value is reported as “No” and the “D-amino acid synthesis activity (specific activity), Wild type, NADPH” value stood at 0.803 µmol/min/mg. Also, in experiment [2], the “D-amino acid synthesis activity (specific activity), Three-mutation enzyme, NADH” value came out at 0.044 µmol/min/mg and the “D-amino acid synthesis activity (specific activity), Three-mutation enzyme, NADPH” value is 4.6 µmol/min/mg. Also, in experiment [3], the “D-amino acid synthesis activity (specific activity), Five-mutation enzyme, NADH” value worked out at 0.055 µmol/min/mg and the “D-amino acid synthesis activity (specific activity), Five-mutation enzyme, NADPH” value was found to be 9.0 µmol/min/mg. In experiment [4], the “D-amino acid synthesis activity (specific activity), Six-mutation enzyme, NADH” value worked out at 0.011 µmol/min/mg and the “D-amino acid synthesis activity (specific activity), Six-mutation enzyme, NADPH” value worked out at 1.2 µmol/min/mg.

Turning to `O=C(O)CC(=O)C(=O)O` [2-oxobutanedioic acid], in experiment [1], the “D-amino acid synthesis activity (specific activity), Wild type, NADH” value came to 0.13 µmol/min/mg and the “D-amino acid synthesis activity (specific activity), Wild type, NADPH” value turned out to be 5.2 µmol/min/mg. Further, in experiment [2], the “D-amino acid synthesis activity (specific activity), Three-mutation enzyme, NADH” value was 0.12 µmol/min/mg and the “D-amino acid synthesis activity (specific activity), Three-mutation enzyme, NADPH” value was found to be 2.0 µmol/min/mg. Moreover, in experiment [3], the “D-amino acid synthesis activity (specific activity), Five-mutation enzyme, NADH” value came out at 0.25 µmol/min/mg and the “D-amino acid synthesis activity (specific activity), Five-mutation enzyme, NADPH” value came to 0.39 µmol/min/mg. In experiment [4], the “D-amino acid synthesis activity (specific activity), Six-mutation enzyme, NADH” value is 0.14 µmol/min/mg and the “D-amino acid synthesis activity (specific activity), Six-mutation enzyme, NADPH” value is 0.44 µmol/min/mg.

Consider `O=C(O)C(=O)Cc1ccccc1` [2-oxo-3-phenylpropanoic acid], for which, in experiment [1], the “D-amino acid synthesis activity (specific activity), Wild type, NADH” value amounted to 0.011 µmol/min/mg and the “D-amino acid synthesis activity (specific activity), Wild type, NADPH” value is 1.5 µmol/min/mg. Further, in experiment [2], the “D-amino acid synthesis activity (specific activity), Three-mutation enzyme, NADH” value was determined as 0.028 µmol/min/mg and the “D-amino acid synthesis activity (specific activity), Three-mutation enzyme, NADPH” value stood at 1.5 µmol/min/mg. In experiment [3], the “D-amino acid synthesis activity (specific activity), Five-mutation enzyme, NADH” value was 0.012 µmol/min/mg and the “D-amino acid synthesis activity (specific activity), Five-mutation enzyme, NADPH” value was 2.7 µmol/min/mg. In experiment [4], the “D-amino acid synthesis activity (specific activity), Six-mutation enzyme, NADH” value is 0.018 µmol/min/mg and the “D-amino acid synthesis activity (specific activity), Six-mutation enzyme, NADPH” value amounted to 2.1 µmol/min/mg.

Turning to `CCC(=O)C(=O)O` [2-oxobutanoic acid], in experiment [1], the “D-amino acid synthesis activity (specific activity), Wild type, NADH” value stood at 0.011 µmol/min/mg and the “D-amino acid synthesis activity (specific activity), Wild type, NADPH” value turned out to be 1.4 µmol/min/mg. Besides, in experiment [2], the “D-amino acid synthesis activity (specific activity), Three-mutation enzyme, NADH” value was determined as 0.028 µmol/min/mg and the “D-amino acid synthesis activity (specific activity), Three-mutation enzyme, NADPH” value is 2.2 µmol/min/mg. Further, in experiment [3], the “D-amino acid synthesis activity (specific activity), Five-mutation enzyme, NADH” value amounted to 0.014 µmol/min/mg and the “D-amino acid synthesis activity (specific activity), Five-mutation enzyme, NADPH” value was found to be 1.6 µmol/min/mg. Also, in experiment [4], the “D-amino acid synthesis activity (specific activity), Six-mutation enzyme, NADH” value is 0.0011 µmol/min/mg and the “D-amino acid synthesis activity (specific activity), Six-mutation enzyme, NADPH” value turned out to be 0.027 µmol/min/mg.
